Assay results from paper PMC12281424, “A Rac-specific competitive inhibitor of guanine nucleotide binding reduces metastasis in triple-negative breast cancer” (Cell Reports Medicine, 2025).

Assays:
[1] = biological target: PKD2(h) (Homo sapiens, UniProt Q9BZL6); assay: Kinase Profiler; type: biochemical
Method: (§1) The kinase profiler was performed by the company Eurofins (Discovery, Panlab and Cerep).

[2] = biological target: ROCK-II(h) (Homo sapiens, UniProt O75116); assay: Kinase Profiler; type: biochemical
Method: (§2) Blood cell counts, kinase profiler, safety screen, bacterial cytotoxicity, Ames, micronucleus assays were performed by the company Eurofins (France). The kinase profiler was performed by the company Eurofins (Discovery, Panlab and Cerep).

[3] = biological target: PI3K (p110d/p85a)(m) (Mus musculus, UniProt O35904); assay: Kinase Profiler; type: biochemical
Method: as §2

[4] = biological target: Adrenergic α2A (Homo sapiens, UniProt P08913); assay: Safety screen; type: binding
Method: Blood cell counts, kinase profiler, safety screen, bacterial cytotoxicity, Ames, micronucleus assays were performed by the company Eurofins (France).

[5] = biological target: Ron(h) (Homo sapiens, UniProt Q04912); assay: Kinase Profiler; type: biochemical
Chain of Ron(h) (Q04912 25-1400): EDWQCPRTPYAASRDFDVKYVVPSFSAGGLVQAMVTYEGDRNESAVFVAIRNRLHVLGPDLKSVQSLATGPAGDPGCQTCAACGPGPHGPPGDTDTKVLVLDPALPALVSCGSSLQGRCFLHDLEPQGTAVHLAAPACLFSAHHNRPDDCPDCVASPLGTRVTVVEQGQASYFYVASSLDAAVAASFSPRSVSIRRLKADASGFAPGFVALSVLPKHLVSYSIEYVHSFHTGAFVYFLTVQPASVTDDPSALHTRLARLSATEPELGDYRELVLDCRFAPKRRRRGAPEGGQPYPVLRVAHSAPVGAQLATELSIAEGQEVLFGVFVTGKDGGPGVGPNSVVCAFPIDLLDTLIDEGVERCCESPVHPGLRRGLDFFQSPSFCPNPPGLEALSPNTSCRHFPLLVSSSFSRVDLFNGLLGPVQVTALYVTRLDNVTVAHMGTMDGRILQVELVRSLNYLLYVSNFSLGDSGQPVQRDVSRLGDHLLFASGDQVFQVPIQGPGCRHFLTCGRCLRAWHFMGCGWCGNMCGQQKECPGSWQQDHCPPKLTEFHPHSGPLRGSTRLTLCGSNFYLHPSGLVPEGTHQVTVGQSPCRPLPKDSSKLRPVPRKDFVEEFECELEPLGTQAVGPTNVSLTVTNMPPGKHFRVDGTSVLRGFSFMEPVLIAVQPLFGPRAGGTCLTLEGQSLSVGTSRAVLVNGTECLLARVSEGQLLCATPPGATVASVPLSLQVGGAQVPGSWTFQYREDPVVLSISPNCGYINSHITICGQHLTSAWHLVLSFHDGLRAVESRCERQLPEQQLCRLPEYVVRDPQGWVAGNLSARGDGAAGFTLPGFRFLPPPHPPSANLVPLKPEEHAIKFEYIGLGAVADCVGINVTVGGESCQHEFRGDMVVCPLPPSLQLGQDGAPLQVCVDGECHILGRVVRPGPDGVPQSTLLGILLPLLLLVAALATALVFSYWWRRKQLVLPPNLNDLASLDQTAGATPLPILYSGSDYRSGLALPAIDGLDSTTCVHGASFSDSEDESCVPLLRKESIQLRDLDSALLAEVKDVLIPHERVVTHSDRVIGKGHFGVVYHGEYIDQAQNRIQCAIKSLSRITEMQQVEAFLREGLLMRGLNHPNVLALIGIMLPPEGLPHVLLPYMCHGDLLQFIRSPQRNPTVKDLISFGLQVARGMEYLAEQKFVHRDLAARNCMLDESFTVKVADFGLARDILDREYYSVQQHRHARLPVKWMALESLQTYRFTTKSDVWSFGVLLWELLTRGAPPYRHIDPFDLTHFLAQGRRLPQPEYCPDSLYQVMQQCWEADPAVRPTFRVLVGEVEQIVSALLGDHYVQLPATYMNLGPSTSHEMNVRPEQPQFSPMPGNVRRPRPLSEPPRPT
Method: as §2

[6] = biological target: GRK2(h) (Homo sapiens, UniProt P25098); assay: Kinase Profiler; type: biochemical
Method: as §2

[7] = biological target: cKit(V560G)(h) (Homo sapiens, UniProt P10721, V560G); assay: Kinase Profiler; type: biochemical
Chain of cKit(V560G)(h) (P10721 26-976 V560G): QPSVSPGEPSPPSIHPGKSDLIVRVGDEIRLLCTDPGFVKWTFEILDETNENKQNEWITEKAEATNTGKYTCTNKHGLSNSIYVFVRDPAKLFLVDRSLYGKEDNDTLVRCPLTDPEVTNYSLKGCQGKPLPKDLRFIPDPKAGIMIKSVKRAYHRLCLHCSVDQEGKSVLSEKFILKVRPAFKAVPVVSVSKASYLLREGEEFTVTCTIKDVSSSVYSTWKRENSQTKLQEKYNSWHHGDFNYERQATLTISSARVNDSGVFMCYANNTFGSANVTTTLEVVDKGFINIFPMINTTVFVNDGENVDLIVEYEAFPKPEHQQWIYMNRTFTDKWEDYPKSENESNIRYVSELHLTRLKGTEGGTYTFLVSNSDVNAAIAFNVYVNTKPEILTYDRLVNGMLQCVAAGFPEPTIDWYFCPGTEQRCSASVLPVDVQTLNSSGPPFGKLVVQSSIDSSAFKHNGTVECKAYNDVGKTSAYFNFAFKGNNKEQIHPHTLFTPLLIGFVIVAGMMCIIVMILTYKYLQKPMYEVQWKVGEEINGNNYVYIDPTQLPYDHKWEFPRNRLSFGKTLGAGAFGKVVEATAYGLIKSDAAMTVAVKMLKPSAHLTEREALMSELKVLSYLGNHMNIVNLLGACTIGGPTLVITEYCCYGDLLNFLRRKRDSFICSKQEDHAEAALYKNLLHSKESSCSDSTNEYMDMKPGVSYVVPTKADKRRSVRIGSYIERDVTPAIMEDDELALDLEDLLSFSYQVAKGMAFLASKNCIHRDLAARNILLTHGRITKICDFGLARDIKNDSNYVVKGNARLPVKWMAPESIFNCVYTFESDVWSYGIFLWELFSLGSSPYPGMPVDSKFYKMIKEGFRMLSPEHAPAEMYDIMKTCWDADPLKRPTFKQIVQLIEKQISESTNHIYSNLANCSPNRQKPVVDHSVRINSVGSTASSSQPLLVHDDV
Method: as §2

[8] = biological target: EGFR(T790M,L858R)(h) (Homo sapiens, UniProt P00533, L858R/T790M); assay: Kinase Profiler; type: biochemical
Method: as §1

[9] = biological target: Blk(m) (Mus musculus, UniProt P16277); assay: Kinase Profiler; type: biochemical
Method: as §2

[10] = biological target: CaMKIIα(h) (Homo sapiens, UniProt Q9UQM7); assay: Kinase Profiler; type: biochemical
Method: as §1

[11] = biological target: cKit(V654A)(h) (Homo sapiens, UniProt P10721, V654A); assay: Kinase Profiler; type: biochemical
Chain of cKit(V654A)(h) (P10721 26-976 V654A): as the sequence (P10721 26-976 V560G) above, with G535V, V629A counted along it
Method: as §2

[12] = biological target: Fms(h) (Homo sapiens, UniProt P07333); assay: Kinase Profiler; type: biochemical
Method: as §1

[13] = Ames fluctuation test (2nd group); type: cell-based
Source text: Data S3. Ames-fluctuation assay-A41.
Test Concentration Count Positive Significance Fisher Exact Test
(# of wells) (- to +++) (p-value)
Ames fluctuation test (TA100 + S9

[14] = biological target: DYRK1B(h) (Homo sapiens, UniProt Q9Y463); assay: Kinase Profiler; type: biochemical
Method: as §1

[15] = biological target: HIPK2(h) (Homo sapiens, UniProt Q9H2X6); assay: Kinase Profiler; type: biochemical
Method: as §1

[16] = biological target: ChaK1(h) (Homo sapiens, UniProt Q96QT4); assay: Kinase Profiler; type: biochemical
Chain of ChaK1(h) (Q96QT4 whole entry): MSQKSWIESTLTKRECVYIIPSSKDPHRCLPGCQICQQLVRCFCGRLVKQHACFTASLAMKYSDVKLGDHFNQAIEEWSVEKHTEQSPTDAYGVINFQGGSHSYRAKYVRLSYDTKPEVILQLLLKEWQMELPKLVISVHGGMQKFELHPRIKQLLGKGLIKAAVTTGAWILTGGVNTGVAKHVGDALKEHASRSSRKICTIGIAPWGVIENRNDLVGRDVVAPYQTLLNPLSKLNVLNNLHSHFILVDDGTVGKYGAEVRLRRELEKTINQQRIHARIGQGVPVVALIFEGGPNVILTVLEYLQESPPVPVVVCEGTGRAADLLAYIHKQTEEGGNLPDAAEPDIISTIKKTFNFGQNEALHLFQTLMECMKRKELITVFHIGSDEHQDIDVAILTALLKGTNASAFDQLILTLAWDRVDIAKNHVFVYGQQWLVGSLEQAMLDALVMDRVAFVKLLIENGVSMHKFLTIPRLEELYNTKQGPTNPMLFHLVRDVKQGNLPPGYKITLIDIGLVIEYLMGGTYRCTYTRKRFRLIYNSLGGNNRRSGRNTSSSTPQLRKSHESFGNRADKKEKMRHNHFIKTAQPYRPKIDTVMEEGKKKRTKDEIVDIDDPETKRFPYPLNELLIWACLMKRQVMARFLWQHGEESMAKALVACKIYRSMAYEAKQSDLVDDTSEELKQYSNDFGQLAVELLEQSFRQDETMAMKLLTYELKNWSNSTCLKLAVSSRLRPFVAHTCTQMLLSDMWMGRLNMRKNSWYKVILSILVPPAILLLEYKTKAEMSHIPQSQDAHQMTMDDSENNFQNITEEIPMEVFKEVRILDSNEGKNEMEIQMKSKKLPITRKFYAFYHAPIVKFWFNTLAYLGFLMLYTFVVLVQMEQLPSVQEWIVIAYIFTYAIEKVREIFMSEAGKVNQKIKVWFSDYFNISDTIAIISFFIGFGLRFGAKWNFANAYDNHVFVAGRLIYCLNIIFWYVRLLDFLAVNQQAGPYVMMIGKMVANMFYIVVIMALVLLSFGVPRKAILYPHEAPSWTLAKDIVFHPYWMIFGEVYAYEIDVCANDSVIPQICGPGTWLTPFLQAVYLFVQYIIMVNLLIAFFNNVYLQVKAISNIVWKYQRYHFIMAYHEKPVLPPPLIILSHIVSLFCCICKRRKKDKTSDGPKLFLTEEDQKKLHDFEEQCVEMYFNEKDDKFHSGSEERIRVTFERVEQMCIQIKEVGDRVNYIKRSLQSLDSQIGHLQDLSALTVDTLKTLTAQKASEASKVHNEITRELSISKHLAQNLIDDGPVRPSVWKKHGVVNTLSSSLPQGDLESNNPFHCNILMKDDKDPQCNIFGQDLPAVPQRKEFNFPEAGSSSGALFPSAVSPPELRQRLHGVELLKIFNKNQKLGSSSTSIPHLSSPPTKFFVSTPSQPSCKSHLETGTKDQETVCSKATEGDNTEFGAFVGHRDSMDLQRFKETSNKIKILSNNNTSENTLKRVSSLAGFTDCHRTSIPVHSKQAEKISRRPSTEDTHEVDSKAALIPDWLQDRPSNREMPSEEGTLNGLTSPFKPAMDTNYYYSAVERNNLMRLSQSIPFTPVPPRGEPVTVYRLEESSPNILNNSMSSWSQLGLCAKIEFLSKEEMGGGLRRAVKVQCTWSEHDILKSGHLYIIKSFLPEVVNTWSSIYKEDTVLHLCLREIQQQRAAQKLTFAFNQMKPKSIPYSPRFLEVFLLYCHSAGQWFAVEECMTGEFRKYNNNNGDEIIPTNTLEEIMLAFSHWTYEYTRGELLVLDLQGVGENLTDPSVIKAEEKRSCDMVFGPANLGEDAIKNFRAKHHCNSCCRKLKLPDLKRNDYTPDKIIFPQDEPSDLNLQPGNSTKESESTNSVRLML
Method: as §1

[17] = biological target: PDHK4(h) (Homo sapiens, UniProt Q16654); assay: Kinase Profiler; type: biochemical
Method: as §2

[18] = biological target: Progesterone PR-B (Homo sapiens, UniProt P06401); assay: Safety screen; type: binding
Method: as §2

[19] = tested on: MDA-MB-468 spheroids; assay: 3D invasion assay; type: cell-based; conditions: 10^-5 M
Method: Figure 5 A41 decreases growth and invasiveness of TNBC cells in vitro (A) Representative images of RAC-GTP levels (red) in MDA-MB-468 Luc cells in the absence (CTL) and presence of EHT1864, NSC23766, or A41 (1 h at 10 μM) (left). Luciferase (Luc, green) was used to detect the cells. RAC-GTP mean fluorescence intensity was quantified inside the cell area (right) (n = 31–37 cells from 3 independent experiments; ∗p < 0.05, ∗∗∗p < 0.001) (scale bars: 10 μm). […] (C) Quantification of colony number of indicated cancer cell lines in the presence of A41 (10 μM) expressed as the percentage of control in the absence of A41. Results shown are representative of N > 3 independent experiments. (D) Immunoblot analysis and corresponding quantification of AKT and P44/42 expression and phosphorylation (pAKT, p44/42) in MDA-MB-468 Luc cells in the absence (−) and presence of NSC23766 or A41 (1 h at 10^−5 M). […] (E) 3D invasion assay of MDA-MB-468 Luc and cancer-associated fibroblasts (CAFs) and corresponding quantification (scale bars: 200 μm). […]
3D-spheroids were obtained, according the protocol previously described,[62] by re-suspending cells at a concentration of 1.25 × 10^4 cells/ml in 20% Methyl-cellulose/80% DMEM 10% FBS. […] Invasion was monitored by fully automated Dmi6000b Wide Field Fluorescence Microscope (Leica Microsystems, Wetzlar, Germany) during 48h.

Chain of PKD2(h) (Q9BZL6 whole entry): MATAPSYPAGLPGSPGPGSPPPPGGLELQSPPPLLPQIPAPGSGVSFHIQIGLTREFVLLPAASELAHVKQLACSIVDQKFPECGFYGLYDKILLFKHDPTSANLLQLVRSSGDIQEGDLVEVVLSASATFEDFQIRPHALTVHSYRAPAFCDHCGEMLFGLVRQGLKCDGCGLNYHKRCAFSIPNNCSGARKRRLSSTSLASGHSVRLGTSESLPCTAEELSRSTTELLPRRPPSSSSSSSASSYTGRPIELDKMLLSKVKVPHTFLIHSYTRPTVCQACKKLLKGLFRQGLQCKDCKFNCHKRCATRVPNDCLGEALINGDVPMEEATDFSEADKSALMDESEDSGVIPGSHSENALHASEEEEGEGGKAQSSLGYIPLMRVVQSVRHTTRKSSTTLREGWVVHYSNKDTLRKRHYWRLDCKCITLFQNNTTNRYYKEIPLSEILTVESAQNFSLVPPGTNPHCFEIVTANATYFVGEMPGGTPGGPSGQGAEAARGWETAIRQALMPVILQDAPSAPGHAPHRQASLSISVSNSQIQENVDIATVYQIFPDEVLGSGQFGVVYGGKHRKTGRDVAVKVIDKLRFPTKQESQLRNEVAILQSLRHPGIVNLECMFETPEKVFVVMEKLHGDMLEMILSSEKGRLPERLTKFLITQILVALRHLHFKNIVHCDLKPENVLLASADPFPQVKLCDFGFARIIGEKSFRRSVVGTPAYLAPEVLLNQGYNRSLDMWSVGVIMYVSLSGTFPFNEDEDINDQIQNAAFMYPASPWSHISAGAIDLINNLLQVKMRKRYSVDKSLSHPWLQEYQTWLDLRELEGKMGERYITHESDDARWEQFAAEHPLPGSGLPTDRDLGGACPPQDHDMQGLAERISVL

SMILES: COc1ccc(OC)c(NS(=O)(=O)c2ccc(NC(=O)CCSc3ccc(C)cc3)cc2)c1 [Compound A41]
- Activity(%) [1]: 100%
- Activity(%) [2]: 93%
- Activity(%) [3]: 100%
- % inh. [4]: 29%
- Activity(%) [5]: 110%
- Activity(%) [6]: 96%
- Activity(%) [7]: 115%
- Activity(%) [8]: 104%
- Activity(%) [9]: 87%
- Activity(%) [10]: 99%
- Activity(%) [11]: 99%
- Activity(%) [12]: 112%
- Count Positive (# of wells) ([13]; 1.0E-04 M): 0
- Count Positive (# of wells) ([13]; 1.0E-05 M): 1
- Count Positive (# of wells) ([13]; 5.0E-05 M): 0
- Count Positive (# of wells) ([13]; 5.0E-06 M): 3
- Activity(%) [14]: 96%
- Activity(%) [15]: 81%
- Activity(%) [16]: 104%
- Activity(%) [17]: 93%
- % inh. [18]: -16%
- size of the spheroids [19]: not affected
- migration area of spheroids ([19]; 3D collagen gel): reduced the migration area
